Laboratory results as given in article PMC6637479, “Identification of undecylenic acid as EAG channel inhibitor using surface plasmon resonance-based screen of KCNH channels” (BMC Pharmacology & Toxicology, 2019).
pKd: −log10 of the molar value.

Target: T1, mEAG1 (Mus musculus, UniProt Q60603)
T1 construct: gene Kcnh1; PAS domain, residues 7–136 (N-terminal 6-His)
T1 sequence (Q60603 7-136): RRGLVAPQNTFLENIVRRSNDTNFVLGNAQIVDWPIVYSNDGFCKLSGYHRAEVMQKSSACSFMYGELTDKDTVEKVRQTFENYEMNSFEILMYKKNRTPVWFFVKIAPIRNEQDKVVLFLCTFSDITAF
Assay: SPR steady-state dose response (Biacore […]); also inhibits full-length mEAG1 currents in inside-out patches, IC50 […]
Type: binding

`C=CCCCCCCCCC(=O)O` [undecylenic acid] showed a pKd of roughly 4.96.
